In article PMC11013284, “Chemoselective Synthesis and Anti-Kinetoplastidal Properties of 2,6-Diaryl-4H-tetrahydro-thiopyran-4-one S-Oxides: Their Interplay in a Cascade of Redox Reactions from Diarylideneacetones” (Molecules, 2024):
Entries after “also recorded” stand apart in the source; their conditions may differ. Read-outs that look alike come from different tables or passages of the source.

Legend:
[1] = system: murine macrophages; assay: Qualitative toxicity toward mouse macrophages; settings: concentration at which toxicity was observed; 64, 16 and 4 µM tested
Procedure: (§1) The cytotoxicity of compounds was evaluated toward human diploid embryonic lung fibroblast hMRC-5SV2 cells, derived from fetal lung tissue and first described in 1970. hMRC-5SV2 cells were cultured in 96-well plates with five concentrations of the compound (64, 16, 4, 1, and 0.25 μM). After 3 days of incubation, the cell viability was assessed fluorimetrically after the addition of resazurin, and fluorescence was measured (λex = 550 nm, λem = 590 nm). The results were expressed as a percentage reduction in cell growth/viability compared to control wells, and a 50% cytotoxic concentration (CC50) was calculated. The reference cytotoxic drugs were tamoxifen or ivermectin. Additionally, toxicity toward mouse macrophages was qualitatively observed. Three concentrations were included (64, 16, and 4 µM), and the range of toxicity was ranked from the least toxic to the most toxic compound.

[2] = system: Trypanosoma cruzi (Tulahuen CL2 β-galactosidase) amastigotes in hMRC-5SV2 cells; assay: T. cruzi intracellular amastigote assay (β-galactosidase/CPRG); type: cell-based
Procedure: A nifurtimox-sensitive strain (Tulahuen CL2 β-galactosidase) in human lung fibroblast hMRC-5SV2 cells was incubated for 7 days in 96-well plates with five concentrations of compound (64, 16, 4, 1, and 0.25 μM). The parasitic burden was evaluated through the activity of the enzyme β-galactosidase on a specific chlorophenol red ß-D-galactopyranoside (CPRG) substrate. Live parasites converted the yellow-orange CPRG substrate into the red chromophore chlorophenol red, yielding a dark-red solution, which could be quantitatively measured at 540 nm after 4 h of incubation at 37 °C. The results were expressed as a percentage reduction in parasite growth/viability compared to control wells, and an IC50 was calculated.

[3] = system: Trypanosoma brucei brucei trypomastigotes, suramin-sensitive strain (Squib 427); assay: T. b. brucei growth/viability assay (resazurin); type: cell-based; settings: for IC50: 3 days; for anti-trypanosomal activity (IC50): Trypanosoma (T. cruzi and T. b. brucei)
Procedure: After 3 days, parasite growth was assessed fluorimetrically following the addition of resazurin. After 24 h at 37 °C, fluorescence was measured (λex = 550 nm, λem = 590 nm). The results were expressed as a percentage reduction in parasite growth/viability compared to control wells, and a 50% inhibitory concentration (IC50) was calculated.

[4] = system: L. infantum (MHOM/MA(BE)/67) amastigotes in primary peritoneal mouse macrophages; assay: L. infantum intramacrophage amastigote assay (microscopic burden); type: cell-based, Leishmania infantum; settings: 5 days, mouse macrophages as host
Procedure: L. infantum (MHOM/MA(BE)/67 strain) amastigote were incubated for 5 days in 96-well plates with five concentrations of compound (64, 16, 4, 1, and 0.25 μM). Primary peritoneal mouse macrophages were used as host cells. Parasite burdens (i.e., the number of amastigotes per macrophage) were microscopically assessed. The results were expressed as a percentage reduction in parasite burden compared to untreated control wells, and an IC50 was calculated.

[5] = in vitro; settings: human, CC50 hMRC-5 (cytotoxicity)
Procedure: as §1

[6] = system: WT LV9 L. donovani intramacrophage amastigotes; assay: L. donovani intramacrophage amastigote assay; type: cell-based, Leishmania donovani; settings: WT LV9, ± SD in Tables S5/S6, read-out: IC50 L. donovani intramacrophage amastigotes
[7] = system: macrophages
[8] = Solubility observations (crystals in assay, insolubility in solvents); type: physicochemical; settings: for presence of crystals, concentration range / presence of crystals (asterisk mark): noted in L. donovani assay, Table S5
[9] = system: human diploid embryonic lung fibroblast hMRC-5SV2 cells; assay: in vitro
Procedure: as §1

[10] = Trypanosoma cruzi, TULAHUEN, 168 h, intracellular amastigotes, 7 days, read-out: IC50 T. cruzi intramacrophage amastigotes (converted)
[11] = Leishmania infantum, Macrophage, 120 h
[12] = bracketed value after the intramacrophage IC50 (Table S5), Table S6
[13] = intracellular amastigotes, 7 days, read-out: IC50 T. cruzi intramacrophage amastigotes (converted)

Structure (SMILES)	Toxicity (T) observed toward murine macrophages [1]	IC50 [2, 10]	IC50 ([3]; Trypanosoma brucei, 72 h)	IC50 [4, 11]	CC50 at 3 days [5]	observed macrophage death / lysis observed at [7, 12]	IC50 [6]	IC50 [2, 13]	IC50 [3]	IC50 [4]	also measured
O=C1CC(c2ccccn2)[S+]([O-])C(c2ccccn2)C1 (mixture of isomers) [3′w, (syn/anti)-cis-2,6-Di-(pyridin-2-yl)-4H-tetra-hydrothiopyran-4-one 1-oxide, as diastereoisomeric mixture]	T3 (T3 = 4)	0.5 µM	0.1 µM	2 µM	8.1 µM	–	–	–	–	–	IC50 ([6]; Leishmania donovani): 2.5 µM
O=C1CC(c2ccccc2)SC(c2ccccc2)C1 (racemic) [2a]	–	–	–	–	–	200 µM	> 100 µM	–	–	–	presence of crystals, concentration range [8]: 6.25 to 200 µM
Cc1ccccc1C1CC(=O)CC(c2ccccc2C)S1 (racemic) [2b]	–	–	–	–	–	> 50 µM	14.5 ± 1.9 µM	≥ 64 µM	> 64 µM	43.1 µM	CC50 [9]: > 64 µM; presence of crystals (asterisk mark) [8]: ** (presence of crystals at > 100 µM)
Cc1ccc(C2CC(=O)CC(c3ccc(C)cc3)S2)cc1 (racemic) [2c]	–	–	–	–	–	200 µM	13.5 ± 2.8 µM	3.7 µM	0.8 µM	> 64 µM	CC50 [9]: 24.2 µM; presence of crystals (asterisk mark) [8]: ** (presence of crystals at > 100 µM)
O=C1CC(c2ccc(Cl)cc2)SC(c2ccc(Cl)cc2)C1 (racemic) [2f]	–	–	–	–	–	> 75 µM	16.1 ± 1.4 µM	> 64 µM	27.4 µM	33.2 µM	CC50 [9]: > 64 µM; presence of crystals (asterisk mark) [8]: * (presence of crystals at > 50 µM)
O=C1CC(c2c(Cl)cccc2Cl)SC(c2c(Cl)cccc2Cl)C1 (racemic) [2h]	–	–	–	–	–	–	–	> 64 µM	> 64 µM	2 µM	CC50 [9]: > 64 µM; presence of crystals, concentration range [8]: 12.5 to 200 µM
COc1ccc(C2CC(=O)CC(c3ccc(OC)cc3)S2(=O)=O)cc1 (racemic) [4d, (±)-trans-2,6-Di-(p-anisyl)-4H-tetrahydrothiopyran-4-one 1,1-dioxide]	–	≥ 64 µM	–	–	≥ 64 µM	–	–	–	43.3 µM	≥ 64 µM	anti-trypanosomal activity (IC50) [3]: almost inactive; also recorded: completely inactive; IC50 ([6]; Leishmania donovani): > 100 µM; solubility (observation) ([8]; almost all types of solvent, even at very low concentrations): Solubility issues; also recorded: insolubility
O=C1CC(c2ccccn2)S(=O)(=O)C(c2ccccn2)C1 (racemic) [4w, (±)-trans-2,6-Di-(pyridin-2-yl)-4H-tetrahydrothiopyran-4-one 1,1-dioxide]	T3 (T3 = 4)	0.4 µM	–	2 µM	7.9 µM	–	5 µM	–	0.5 µM	–	anti-trypanosomal activity (IC50) [3]: high nanomolar range; IC50 L. infantum intramacrophage amastigotes [4]: excellent potency
O=C(/C=C/c1ccccc1)/C=C/c1ccccc1 [1a]	–	–	0.4 µM	20.3 µM	52.9 µM	–	–	–	–	–	IC50 ([2]; Trypanosoma cruzi, TULAHUEN, 168 h, read-out: IC50 T. cruzi intramacrophage amastigotes): 16 µM; observed macrophage death / lysis observed at [7]: 200 µM; IC50 ([6]; Leishmania donovani): > 100 µM; presence of crystals, concentration range [8]: 12.5 to 200 µM
Cc1ccc(/C=C/C(=O)/C=C/c2ccc(C)cc2)cc1 [1c]	–	41.9 µM	9.3 µM	> 64 µM	32.5 µM	–	–	–	–	–	presence of crystals, concentration range [8]: 25 to 100 µM
COc1ccc(/C=C/C(=O)/C=C/c2ccc(OC)c(OC)c2)cc1OC [1j]	T1 (T1 = 64)	2.1 µM	2.1 µM	30 µM	6.9 µM	–	–	–	–	–	–
COc1ccc(OC)c(/C=C/C(=O)/C=C/c2cc(OC)ccc2OC)c1 [1m]	T1 (T1 = 64)	1.1 µM	0.8 µM	10.4 µM	1 µM	–	–	–	–	–	–
COc1cc(Br)c(OC)c(/C=C/C(=O)/C=C/c2cc(OC)cc(Br)c2OC)c1 [1q]	T1 (T1 = 64)	0.9 µM	0.9 µM	10.4 µM	0.8 µM	–	–	–	–	–	–
CC(=O)Nc1ccc(/C=C/C(=O)/C=C/c2ccc(NC(C)=O)cc2)cc1 [1v]	–	–	–	–	–	100 µM	> 50 µM	10.2 µM	0.5 µM	8.1 µM	CC50 [9]: 34 µM
O=C(/C=C/c1ccccn1)/C=C/c1ccccn1 [1w]	T3 (T3 = 4)	0.3 µM	0.03 µM	0.4 µM	1.9 µM	–	–	–	–	–	–
O=C(/C=C/c1ccco1)/C=C/c1ccco1 [1z]	T1 (T1 = 64)	39.9 µM	7.6 µM	32.5 µM	> 64 µM	–	–	–	–	–	observed macrophage death / lysis observed at [7]: > 50 µM; IC50 ([6]; Leishmania donovani): 14 ± 2.6 µM
Cc1ccc(/C=C/C(=O)/C=C/c2ccc(C)o2)o1 [1za]	T2 (T2 = 16)	2.2 µM	8.2 µM	8.1 µM	5.4 µM	–	–	–	–	–	–
Cc1ccc(/C=C/C(=O)/C=C/c2ccccc2)cc1 [1’a]	–	–	–	–	–	–	–	2.6 µM	0.5 µM	32.5 µM	CC50 [9]: 47 µM; presence of crystals, concentration range [8]: 3.1 to 200 µM
COc1ccc(/C=C/C(=O)/C=C/c2ccccc2)cc1 [1’h]	–	–	–	–	–	> 37.5 µM	17.4 ± 1.9 µM	–	–	–	presence of crystals (asterisk mark) [8]: ** (presence of crystals at > 100 µM)
COc1ccc(/C=C/C(=O)/C=C/c2ccc3ccccc3c2)cc1 [1’j]	–	–	–	–	–	> 150 µM	58.2 ± 8 µM	–	–	–	presence of crystals (asterisk mark) [8]: ** (presence of crystals at > 100 µM)
CN(C)c1ccc(/C=C/C(=O)/C=C/c2nccs2)cc1 [1’s]	–	–	–	–	–	> 37.5 µM	11.5 ± 0.6 µM	11 µM	0.4 µM	38 µM	CC50 [9]: > 64 µM; presence of crystals (asterisk mark) [8]: * (presence of crystals at > 50 µM)
O=C1CC(c2ccccn2)[S+]([O-])C(c2ccccn2)C1 (stereo not drawn) [3w, (±)-trans-2,6-Di-(pyridin-2-yl)-4H-tetrahydrothiopyran-4-one 1-oxide]	T3 (T3 = 4)	0.8 µM	0.1 µM	2 µM	8 µM	–	–	–	–	–	IC50 ([6]; Leishmania donovani): 25 µM
COc1ccc(C2CC(=O)CC(c3ccc(OC)cc3)[S+]2[O-])cc1 (stereo not drawn) [3″d, (anti)- and (syn)-cis-2,6-Di-(p-anisyl)-4H-tetrahydro-thiopyran-4-one 1-oxides]	T1 (T1 = 64)	–	–	–	–	–	35 µM	8.5 µM	2.4 µM	27.3 µM	IC50 T. cruzi intramacrophage amastigotes ([2]; intracellular amastigotes, 7 days): moderate potency; IC50 L. infantum intramacrophage amastigotes [4]: moderate potency; CC50 ([9]; human, 3 days): 32 µM
O=C1CC(c2ccccn2)S(=O)(=O)C(c2ccccn2)C1 (stereo not drawn) [4′w, cis-2,6-Di-(pyridin-2-yl)-4H-tetrahydrothiopyran-4-one 1,1-dioxide]	T3 (T3 = 4)	–	–	–	–	–	1.6 µM	0.4 µM	0.1 µM	2 µM	anti-trypanosomal activity (IC50) [3]: high nanomolar range; IC50 L. infantum intramacrophage amastigotes [4]: excellent potency; CC50 ([9]; human, 3 days): 7.5 µM
